Laboratory results taken from PMC6504873, “High-throughput screening of the Plasmodium falciparum cGMP-dependent protein kinase identified a thiazole scaffold which kills erythrocytic and sexual stage parasites” (Scientific Reports, 2019).
≈ marks a conversion by molar mass, not a printed value.

Columns and labels:
WT PfPKG = molecular target: T1, WT PfPKG (Plasmodium falciparum, UniProt Q8I719); test: Kinase Glo enzymatic assay, recombinant WT PfPKG; type: biochemical, P. falciparum; details: WT PfPKG (μM), recombinant WT PfPKG
T1 construct: recombinant full length wild type (WT) PfPKG; His6 (N); host or cells: E. coli BL21
T1 sequence (Q8I719 whole entry): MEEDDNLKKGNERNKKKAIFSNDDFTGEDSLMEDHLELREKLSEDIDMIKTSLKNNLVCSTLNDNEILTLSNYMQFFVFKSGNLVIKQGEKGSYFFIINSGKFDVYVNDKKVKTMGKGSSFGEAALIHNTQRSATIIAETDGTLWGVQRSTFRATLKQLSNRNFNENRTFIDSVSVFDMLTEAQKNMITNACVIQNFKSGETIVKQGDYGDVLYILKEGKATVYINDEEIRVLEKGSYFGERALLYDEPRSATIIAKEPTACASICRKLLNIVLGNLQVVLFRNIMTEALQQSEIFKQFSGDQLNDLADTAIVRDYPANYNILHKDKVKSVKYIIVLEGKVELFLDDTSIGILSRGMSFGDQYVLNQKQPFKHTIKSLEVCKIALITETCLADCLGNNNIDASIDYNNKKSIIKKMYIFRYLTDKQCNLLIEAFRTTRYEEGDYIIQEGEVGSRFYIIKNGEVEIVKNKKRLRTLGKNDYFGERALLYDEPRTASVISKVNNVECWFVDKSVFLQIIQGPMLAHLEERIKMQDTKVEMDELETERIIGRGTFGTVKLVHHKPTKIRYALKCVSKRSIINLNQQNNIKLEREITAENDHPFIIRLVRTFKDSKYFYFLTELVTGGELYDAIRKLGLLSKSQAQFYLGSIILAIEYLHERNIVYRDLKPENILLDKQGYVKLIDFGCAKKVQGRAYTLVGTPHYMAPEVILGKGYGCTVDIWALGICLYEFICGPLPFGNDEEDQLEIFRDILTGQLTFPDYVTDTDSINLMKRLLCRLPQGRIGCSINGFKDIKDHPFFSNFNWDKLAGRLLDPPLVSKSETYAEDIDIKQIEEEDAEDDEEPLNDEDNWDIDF
Description: To identify new PKG inhibitor scaffolds, the 1.7 million GlaxoSmithKline Full Diversity collection was tested at a single final concentration of 10 μM against recombinant full length wild type (WT) PfPKG using a Kinase Glo-based assay (Promega). The results gave a robust Z′ mean value of 0.85. At an average statistical cut-off of 30%, 20,174 primary hits were identified with an overall hit rate of 1%. Fresh samples of these primary hits were tested in duplicate against WT PfPKG and also against human PKGIα (HuPKGIα) (Supplementary Fig. 1) at a final concentration of 10 μM (confirmation step).
(§1) Protein production was outsourced to the Division of Signal Transduction Therapy, University of Dundee. Briefly, the pTRChis expression vectors (Invitrogen) containing an N-terminally His6-tagged PfPKG wildtype and T618Q were used to transform BL21 cells (protocol adapted from[23]). The cells were grown at 37 °C until the OD600 was 0.4–0.6 then the temperature was reduced to 15 °C and the cells were induced with 250 µM IPTG and grown for a further 16–18 hours before harvesting. The His6-PfPKG was purified on Cobalt agarose followed by gel filtration and the protein was dialysed into 25 mM Hepes pH 7.5, 0.1 mM EGTA, 150 mM NaCl, 50% glycerol and 2 mM DTT.
(§2) Initial optimization of the PKG assay was performed manually in 384-well plates and analysed with GraFit 7. The buffer for all assays was 25 mM HEPES pH 7.3 (GIBCO), 10 mM MgCl2 (Sigma), 2 mM DTT (Sigma), 0.01 mM cGMP (Sigma), 0.1 mg/ml BSA (Ambion). Enzymatic activity was tested using a luminescence-based kit (Promega KinaseGlo). Addition of the first reagent depletes the unused ATP and addition of the second reagent converts ADP (product of the kinase reaction) to ATP, which is then measured through a luciferin/luciferase reaction. The amount of luminescence is directly proportional to ATP turnover by the kinase. The kit was chosen because it can be miniaturized to small volumes (i.e. 4 µl) in 1536-well plates, for use in HTS.
(§3) We used PKA peptide substrate (SCP0212, Sigma-Aldrich) for WT and TQ PfPKG, dissolved in milliQ water at a final concentration of 5 mM, and Long S6 peptide substrate (produced at the University of Dundee, sequence […]) for HuPKGIα, dissolved in water at a final concentration of 30 mM.
(§4) We calculated the Michaelis-Menten (Km) constant for ATP and peptide substrate (PKA or Long S6) for all enzymes using GraphPad Prism (Supplementary Figs 2 and 3 and Supplementary Table 3). In order to identify different types of PKG inhibitors, including ATP competitive or non-competitive inhibitors, as well as inhibitors that bind to the peptide substrate pocket, we performed all assays using ATP and peptide substrate at a concentration equal to the Km. We also determined enzyme activity by calculating ATP turnover (Kcat) over the Km (Supplementary Table 3). The Kcat was calculated as (Vmax*slope)/[E] where Vmax is the maximum velocity and [E] is the concentration of the enzyme.
(§5) The plates containing the compounds were prepared at GSK in Upper Providence or Stevenage. Compounds were tested at a single final concentration of 10 µM or in a dose response with a range of concentrations starting from 100 μM to 1.6 nM (1 in 3 serial dilutions). Compounds were dispensed in the plates at the required concentration in a 40 nl volume. All plates (1536-well white Greiner) contained 40 nl of DMSO in lanes 11 and 12 (control 1, 100% enzyme activity) and were empty in lanes 35 and 36 (control 2, 0% enzyme activity). The plates were removed from −20 °C 1 hour before starting the assay. Using a Multidrop Combi dispenser (Thermo Scientific), 2 µl of the buffer containing ATP and the substrate were added to all wells then 2 µl of buffer only were added to column 35 and 36. Finally 2 µl of buffer containing the enzyme were dispensed in all the plate wells except for lanes 35 and 36. […]

[1] = AM_Perm (artificial membrane permeability); type: in vitro ADME; details: PAMPA
[2] = Aqueous kinetic solubility assay (CAD); type: physicochemical; details: several values in a cell = replicates
Description: […] of 10 mM DMSO compound solution is diluted to 100 μl with pH7.4 phosphate buffered saline, equilibrated for 1 hour at room temperature and filtered through Millipore MultiscreenHTS-PCF filter plates (MSSL BPC). The filtrate is quantified by suitably calibrated Charged Aerosol Detector[56].

HepG2 cells = test: Cytotoxicity assay (CellTiter-Glo); type: cell-based; details: Homo sapiens, HepG2, read-out: HepG2 (μM)
Description: Cytotoxicity assays were performed on HepG2 cells as previously described. HepG2 cells were removed from a T-175 TC flask using 5 mL Eagle’s MEM (containing 10% FBS, 1% NEAA, 1% penicillin/streptomycin) and dispersed in the medium. Seeding density was checked to ensure that new mono-layers were not more than 50% confluent at the time of harvesting. Cells were added to 500 mL of the same medium at a final density of 1.2 × 10^5 cells/mL. They were then dispensed (25 μL, about 3,000 cells per well) into 384-well clear-bottom plates using a Multidrop Combi dispenser. Test compounds (250 nL) were dispensed into the plates with an EchoH liquid handler prior to addition of the cells. Plates were incubated for 48 h at 37 °C, 5% CO2. After incubation, plates were equilibrated at room temperature for 30 minutes before proceeding to develop the luminescent signal. The CellTiter-GloH Reagent was allowed to equilibrate at room temperature for 30 minutes and added to the plates (25 μL per well) using a Multidrop Combi dispenser. Plates were left for 10 minutes at room temperature for stabilization and then read using a Perkin Elmer ViewLux.

[3] = ChromlogD (lipophilicity)
PFI = type: physicochemical
Description: Dose response assays were performed in duplicate on WT PfPKG, HuPKGIα and a mock assay performed in the absence of enzyme (the counterscreen). Comparison of the PfPKG and HuPKGIα IC50 values gave information on selectivity and the counterscreen identified luminescent false positive compounds (see Materials and Methods). Cytotoxicity assays were also performed using a human hepatoma cell line (HepG2)[30]. […] This set of compounds was clustered by similarity using a complete-linkage algorithm and a threshold of 0.55[31]. A total of 79 clusters and 54 singletons were obtained.

PI3KD = PI3KD (Homo sapiens, UniProt O00329); test: Preliminary safety test on human PI3KD kinase; type: biochemical
PI3KD, sequence (O00329 whole entry): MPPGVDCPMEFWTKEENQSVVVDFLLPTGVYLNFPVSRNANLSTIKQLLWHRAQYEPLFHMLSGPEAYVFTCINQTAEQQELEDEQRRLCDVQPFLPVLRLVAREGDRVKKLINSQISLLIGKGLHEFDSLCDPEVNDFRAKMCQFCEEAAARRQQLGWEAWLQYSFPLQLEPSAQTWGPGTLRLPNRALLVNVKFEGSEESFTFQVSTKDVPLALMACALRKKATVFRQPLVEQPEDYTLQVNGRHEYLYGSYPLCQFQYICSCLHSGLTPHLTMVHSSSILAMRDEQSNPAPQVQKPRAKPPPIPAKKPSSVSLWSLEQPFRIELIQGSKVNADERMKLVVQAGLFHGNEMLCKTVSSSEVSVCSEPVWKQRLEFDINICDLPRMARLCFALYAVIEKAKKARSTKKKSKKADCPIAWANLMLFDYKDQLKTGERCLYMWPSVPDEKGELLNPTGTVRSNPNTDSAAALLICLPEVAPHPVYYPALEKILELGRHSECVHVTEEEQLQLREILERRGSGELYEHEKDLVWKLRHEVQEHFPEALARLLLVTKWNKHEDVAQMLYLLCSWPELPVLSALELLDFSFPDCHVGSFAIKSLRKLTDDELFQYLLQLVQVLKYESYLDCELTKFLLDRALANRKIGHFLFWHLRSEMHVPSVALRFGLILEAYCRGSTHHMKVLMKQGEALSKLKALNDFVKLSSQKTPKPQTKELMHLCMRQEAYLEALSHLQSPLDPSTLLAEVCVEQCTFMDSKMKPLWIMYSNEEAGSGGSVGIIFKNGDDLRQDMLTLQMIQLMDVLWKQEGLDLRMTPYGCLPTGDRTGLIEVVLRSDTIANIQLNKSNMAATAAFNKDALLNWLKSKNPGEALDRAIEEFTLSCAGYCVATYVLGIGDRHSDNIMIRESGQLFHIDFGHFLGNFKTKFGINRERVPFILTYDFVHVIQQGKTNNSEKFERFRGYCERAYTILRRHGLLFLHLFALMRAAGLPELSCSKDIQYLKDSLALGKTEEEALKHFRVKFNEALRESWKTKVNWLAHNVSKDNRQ
PI3KD, sequence (P27986 whole entry partner): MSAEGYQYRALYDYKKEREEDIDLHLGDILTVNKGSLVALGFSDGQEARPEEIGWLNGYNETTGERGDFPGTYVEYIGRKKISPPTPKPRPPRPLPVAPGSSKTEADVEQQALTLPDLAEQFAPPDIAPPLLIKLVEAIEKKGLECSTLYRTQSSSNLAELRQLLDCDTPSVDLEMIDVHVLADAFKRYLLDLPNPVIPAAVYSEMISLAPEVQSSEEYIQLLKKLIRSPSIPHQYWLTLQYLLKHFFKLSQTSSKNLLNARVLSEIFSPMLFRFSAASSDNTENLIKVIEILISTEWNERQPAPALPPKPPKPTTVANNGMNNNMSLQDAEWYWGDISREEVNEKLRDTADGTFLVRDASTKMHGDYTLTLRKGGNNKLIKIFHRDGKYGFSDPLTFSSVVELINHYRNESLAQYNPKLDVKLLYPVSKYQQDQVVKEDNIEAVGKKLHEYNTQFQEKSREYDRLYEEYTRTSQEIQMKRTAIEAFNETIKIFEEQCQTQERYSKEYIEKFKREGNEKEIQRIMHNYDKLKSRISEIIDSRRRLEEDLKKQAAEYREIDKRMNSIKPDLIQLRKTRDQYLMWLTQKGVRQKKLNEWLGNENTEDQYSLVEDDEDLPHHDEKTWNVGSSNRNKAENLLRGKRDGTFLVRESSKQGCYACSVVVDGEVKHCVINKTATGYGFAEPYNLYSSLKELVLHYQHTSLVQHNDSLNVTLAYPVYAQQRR

TQ PfPKG (PfPKG_T618Q) = molecular target: T2, TQ PfPKG (PfPKG_T618Q) (Plasmodium falciparum, UniProt Q8I719, T618Q); test: Kinase Glo enzymatic assay, gatekeeper mutant TQ PfPKG; type: biochemical, P. falciparum
T2 construct: His6 (N); host or cells: E. coli BL21
T2 sequence (Q8I719 whole entry T618Q): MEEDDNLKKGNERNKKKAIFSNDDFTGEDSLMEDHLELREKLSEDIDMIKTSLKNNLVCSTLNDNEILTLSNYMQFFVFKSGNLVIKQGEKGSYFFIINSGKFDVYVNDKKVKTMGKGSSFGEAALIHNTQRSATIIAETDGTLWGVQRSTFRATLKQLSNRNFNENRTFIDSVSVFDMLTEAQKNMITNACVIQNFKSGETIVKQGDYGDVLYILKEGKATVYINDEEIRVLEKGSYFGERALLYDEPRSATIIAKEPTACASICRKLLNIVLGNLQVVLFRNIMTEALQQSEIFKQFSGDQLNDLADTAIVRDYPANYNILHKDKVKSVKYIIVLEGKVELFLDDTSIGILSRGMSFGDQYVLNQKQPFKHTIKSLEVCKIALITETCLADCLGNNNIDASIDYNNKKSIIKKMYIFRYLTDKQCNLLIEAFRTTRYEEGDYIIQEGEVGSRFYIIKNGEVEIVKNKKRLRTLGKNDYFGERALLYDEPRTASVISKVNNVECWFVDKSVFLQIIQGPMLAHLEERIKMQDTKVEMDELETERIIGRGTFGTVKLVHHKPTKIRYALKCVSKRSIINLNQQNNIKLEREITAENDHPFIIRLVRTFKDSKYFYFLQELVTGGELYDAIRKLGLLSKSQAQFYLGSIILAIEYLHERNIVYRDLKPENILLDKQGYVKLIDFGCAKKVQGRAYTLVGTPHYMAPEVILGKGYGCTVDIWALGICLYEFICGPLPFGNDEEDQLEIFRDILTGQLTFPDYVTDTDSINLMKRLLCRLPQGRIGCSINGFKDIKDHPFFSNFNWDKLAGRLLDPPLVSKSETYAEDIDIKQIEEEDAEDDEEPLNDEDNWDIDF
Description: Taking advantage of the availability of more than 3,000 thiazole derivatives among the GSK compound collection, cluster 3 was thoroughly investigated for potent and selective inhibitors of WT PfPKG. […] We explored the binding mode by also testing compounds on the gatekeeper mutant enzyme TQ PfPKG. […] These two time points were chosen to give an indication of the speed of kill of the compounds. […] A preliminary safety test was performed on human AuroraB and LCK kinases which often underpin toxicity issues. […] Further assays for compound characterization included determination of solubility and cytotoxicity (HepG2 inhibition). Thiazoles have been previously identified as human BRaf inhibitors that are used to treat melanoma.
as §1, §2, §3, §4
as §5, with “36.” for “36. Finally 2 µl of buffer containing the enzyme were dispensed in all the plate wells except for lanes 35 and 36.”

P. berghei = test system: P. berghei; set-up: method as in PMID 28446690; details: P. berghei mouse model ref 44; cited from earlier work
P. falciparum = test system: P. falciparum; set-up: method as in PMID 28446690; details: P. falciparum mouse model ref 44; cited from earlier work
[4] = set-up: method as in PMID 24958809; details: in the clinic ref 39; cited from earlier work

Structure (SMILES): Nc1nccc(-c2c(-c3ccc(F)cc3)ncn2C2CCNCC2)n1 [Compound 1]
- IC50 (WT PfPKG): 0.066 µM
- AM Perm [1]: 9.1 ×10⁻⁶ cm/s
- solubility at 1 h ([2]; pH 7.4, aqueous buffer, kinetic from dmso stock): 155 µM (≈ 52.5 µg/mL)
- solubility at 1 h [2]: 291 µM (≈ 98.5 µg/mL)
- IC50 (HepG2 cells): > 100 µM
- chromatographic logD [3]: 0.8
- PFI (PFI): 3.8
- IC50 (PI3KD): > 50.1 µM
- IC50 (TQ PfPKG (PfPKG_T618Q)): > 100 µM

Structure (SMILES): CS(=O)(=O)c1ccc(-c2cnc(N)c(-c3ccc(C(F)(F)F)nc3)c2)cc1 [MMV390048]
- ED90 (P. berghei): 1.1 mg/kg
- ED90 (P. falciparum): 0.57 mg/kg

Structure (SMILES): CC(C)(C)c1nc(-c2cccc(NS(=O)(=O)c3c(F)cccc3F)c2F)c(-c2ccnc(N)n2)s1 [dabrafenib]
- patients experiencing severe adverse events [4]: 24%
